Results published in patent publication US12077522B2, “Heterocyclic compound and application thereof” (Takeda Pharmaceutical Company Limited, priority 2018, dated 2024).

Biological target: T1, human orexin type 2 receptor (Homo sapiens, UniProt O43614)
T1 construct: expressed in transfected cells
T1 sequence (O43614 1-444): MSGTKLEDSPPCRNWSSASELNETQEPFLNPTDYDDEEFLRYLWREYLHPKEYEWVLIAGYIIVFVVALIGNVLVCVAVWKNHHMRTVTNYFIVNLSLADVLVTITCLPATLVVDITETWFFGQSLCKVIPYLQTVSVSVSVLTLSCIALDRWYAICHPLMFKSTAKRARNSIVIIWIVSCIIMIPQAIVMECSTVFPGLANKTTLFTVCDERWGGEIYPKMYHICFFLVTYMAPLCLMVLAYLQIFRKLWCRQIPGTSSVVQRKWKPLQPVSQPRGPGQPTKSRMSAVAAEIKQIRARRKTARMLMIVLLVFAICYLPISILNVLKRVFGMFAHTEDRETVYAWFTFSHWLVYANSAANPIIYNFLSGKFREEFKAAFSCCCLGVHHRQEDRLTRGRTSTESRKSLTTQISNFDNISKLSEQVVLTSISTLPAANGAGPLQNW
Assay: Measurement of orexin type 2 receptor agonist activity (calcium fluorescence, Fluo-4 AM, FDSS)
Format: cell-based
Conditions: compound at 3 μM; CHO cells forcibly expressing human OX2 receptor; DMSO = 0%, orexin A (human) 10 nM = 100%
Source text: To obtain a cell clone stably expressing human orexin type 2 receptor, human orexin type 2 receptor cDNA was inserted into pcDNA3.1(+) plasmid vector (Invitrogen), and a plasmid DNA for expression of human orexin type 2 receptor (pcDNA3.1(+)/hOX2R) was cloned. The plasmid DNA was introduced into CHO-dhfr cell by an electroporation method, and human orexin type 2 receptor expressing clone cells were obtained by limiting dilution method by using G418 drug resistance as a selection marker.
CHO cells forcibly expressing human OX2 receptor were seeded in each well of 384 well black transparent bottom plate (BD Falcon) at 7,500 cells/well, and cultured for one day in a 5% CO2 incubator at 37° C. After removal of the medium in the cell plate, assay buffer A containing a calcium indicator (HBSS (Thermo Fisher Scientific), 20 mM HEPES (Thermo Fisher Scientific), 0.1% BSA (Wako Pure Chemical Industries, Ltd. or Sigma-Aldrich), 2.5 μg/mL Fluo-4 AM (DOJINDO Chemical), 0.08% Pluronic F127 (DOJINDO Chemical), 1.25 mM probenecid (DOJINDO Chemical)) was added at 30 μL/well. The plate was stood for 30 min in a 5% CO2 incubator at 37° C., and further stood at room temperature for 30 min. A test compound prepared by diluting with assay buffer B (HBSS, 20 mM HEPES, 0.1% BSA) was added at […], and the fluorescence value was measured by FDSSpCELL (Hamamatsu Photonics K.K.) every one sec for 1 min, and thereafter every two sec for 1 min 40 sec. The activity (%) of the test compound was calculated assuming that variation in the fluorescence value when DMSO was added instead of the test compound was 0%, and variation in the fluorescence value when orexin A (human) (PEPTIDE INSTITUTE, INC.) was added at the final concentration of 10 nM was 100%. The activity of each compound at the concentration of 3 μM was shown below.

Row | OX2R agonist activity (3 μ M, %) | Compound
1 | 67% | O=C(NC1CCCN(C(=O)N2CCC2)C1COC1CCN(c2ncccn2)CC1)[C@@H]1CCCO1 (stereo in doubt) [Example 7, (2S)-N-[cis-1-(azetidine-1-carbonyl)-2-({[1-(pyrimidin-2-yl)piperidin-4-yl]oxy}methyl)piperidin-3-yl]oxolane-2-carboxamide]
2 | 83% | O=C(NC1CCCN(C(=O)N2CCC2)C1COC1CCN(c2ncc(F)cn2)CC1)[C@@H]1CCCO1 (stereo in doubt) [Example 8, (2S)-N-[cis-1-(azetidine-1-carbonyl)-2-({[1-(5-fluoropyrimidin-2-yl)piperidin-4-yl]oxy}methyl)piperidin-3-yl]oxolane-2-carboxamide]
3 | 94% | O=C(NC1CCCN(C(=O)C2CCC2)C1COC1CCN(c2ncccn2)CC1)[C@@H]1CCCO1 (stereo in doubt) [Example 11, (2S)-N-[cis-1-(cyclobutanecarbonyl)-2-({[1-(pyrimidin-2-yl)piperidin-4-yl]oxy}methyl)piperidin-3-yl]oxolane-2-carboxamide]
4 | 99% | O=C(NC1CCCN(C(=O)C2CCC2)C1COC1CCN(c2ncc(F)cn2)CC1)[C@@H]1CCCO1 (stereo in doubt) [Example 12, (2S)-N-[cis-1-(cyclobutanecarbonyl)-2-({[1-(5-fluoropyrimidin-2-yl)piperidin-4-yl]oxy}methyl)piperidin-3-yl]oxolane-2-carboxamide]
5 | 81% | O=C(NC1CCCN(C(=O)C2(O)CCC2)C1COC1CCN(c2ncccn2)CC1)[C@@H]1CCCO1 (stereo in doubt) [Example 13, (2S)-N-[cis-1-(1-hydroxycyclobutane-1-carbonyl)-2-({[1-(pyrimidin-2-yl)piperidin-4-yl]oxy}methyl)piperidin-3-yl]oxolane-2-carboxamide]
6 | 92% | O=C(NC1CCCN(C(=O)C2(O)CCC2)C1COC1CCN(c2ncc(F)cn2)CC1)[C@@H]1CCCO1 (stereo in doubt) [Example 14, (2S)-N-[cis-2-({[1-(5-fluoropyrimidin-2-yl)piperidin-4-yl]oxy}methyl)-1-(1-hydroxycyclobutane-1-carbonyl)piperidin-3-yl]oxolane-2-carboxamide]
7 | 96% | CC(C)OC(=O)N1CCCC(NC(=O)[C@@H]2CCCO2)C1COC1CCN(c2ncccn2)CC1 (stereo in doubt) [Example 15, propan-2-yl cis-3-{[(2S)-oxolane-2-carbonyl]amino}-2-({[1-(pyrimidin-2-yl)piperidin-4-yl]oxy}methyl)piperidine-1-carboxylate]
8 | 95% | CC(C)OC(=O)N1CCCC(NC(=O)[C@@H]2CCCO2)C1COC1CCN(c2ncc(F)cn2)CC1 (stereo in doubt) [Example 16, propan-2-yl cis-2-({[1-(5-fluoropyrimidin-2-yl)piperidin-4-yl]oxy}methyl)-3-{[(2S)-oxolane-2-carbonyl]amino}piperidine-1-carboxylate]
9 | 84% | CN(C)C(=O)C(=O)NC1CCCN(C(=O)C2CCC2)C1COC1CCN(c2ncc(F)cn2)CC1 (stereo not drawn) [Example 4, N^~2^~- [cis-1-(cyclobutanecarbonyl)-2-({[1-(5-fluoropyrimidin-2-yl)piperidin-4-yl]oxy}methyl)piperidin-3-yl]-N^~1^~,N^~1^~-dimethylethanediamide]
10 | 98% | CCNC(=O)N1CCCC(NC(=O)C(=O)N(C)C)C1CO[C@H]1CC[C@@H](c2ccccc2)CC1 (stereo partly drawn) [Example 18, N^~2^~-[cis-1-(ethylcarbamoyl)-2-({[cis-4-phenylcyclohexyl]oxy}methyl)piperidin-3-yl]-N^~1^~,N^~1^~- dimethylethanediamide]
11 | 75% | CCNC(=O)N1CCCC(NC(=O)C(=O)N(C)C)C1CO[C@H]1CC[C@@H](c2ccc(F)cc2)CC1 (stereo partly drawn) [Example 19, N^~2^~-[cis-1-(ethylcarbamoyl)-2-({[cis-4-(4-fluorophenyl)cyclohexyl]oxy}methyl)piperidin-3-yl]-N^~1^~,N^~1^~- dimethylethanediamide]
12 | 102% | CCNC(=O)N1CCCC(NC(=O)C(=O)N(C)C)C1CO[C@H]1CC[C@@H](c2cccc(F)c2)CC1 (stereo partly drawn) [Example 21, N^~2^~-[cis-1-(ethylcarbamoyl)-2-({[cis-4-(3-fluorophenyl)cyclohexyl]oxy}methyl)piperidin-3-yl]-N^~1^~,N^~1^~- dimethylethanediamide]
13 | 99% | CCNC(=O)N1CCCC(NC(=O)C(=O)N(C)C)C1CO[C@H]1CC[C@@H](c2ccccc2F)CC1 (stereo partly drawn) [Example 22, N^~2^~-[cis-1-(ethylcarbamoyl)-2-({[cis-4-(2-fluorophenyl)cyclohexyl]oxy}methyl)piperidin-3-yl]-N^~1^~,N^~1^~- dimethylethanediamide]
